Values of other authors in US20160038452A1, “Methods for Administering a Depot of Disulfiram” (priority 2014, published 2016).

What was measured:
[1] = deep intramuscular injection, compared with patients on oral disulfiram

- half-life of disulfiram in blood: 4 min
- urinary levels of disulfiram metabolites [1]: insignificant
Structure (SMILES): CCN(CC)C(=S)SSC(=S)N(CC)CC [disulfiram]
